Source: patent US9238658B2, “Substituted piperidinyl-carboxamide derivatives useful as SCD 1 inhibitors” (Janssen Pharmaceutica NV, priority 2011, dated 2016)
Values joined by “and” are separate entries in the source; they are usually repeats but may differ in a detail not shown here. Identical values can stand only once. Marks after values point to notes of the source that are not given here.

Columns and labels:
SCD1 [1] = biological target: SCD1 (Rattus norvegicus (Rat), UniProt P07308); experiment: SCD1 enzymatic assay in rat liver microsomes (RLM); type: biochemical
Sequence of SCD1 (Rattus norvegicus (Rat), UniProt P07308) (P07308 whole entry): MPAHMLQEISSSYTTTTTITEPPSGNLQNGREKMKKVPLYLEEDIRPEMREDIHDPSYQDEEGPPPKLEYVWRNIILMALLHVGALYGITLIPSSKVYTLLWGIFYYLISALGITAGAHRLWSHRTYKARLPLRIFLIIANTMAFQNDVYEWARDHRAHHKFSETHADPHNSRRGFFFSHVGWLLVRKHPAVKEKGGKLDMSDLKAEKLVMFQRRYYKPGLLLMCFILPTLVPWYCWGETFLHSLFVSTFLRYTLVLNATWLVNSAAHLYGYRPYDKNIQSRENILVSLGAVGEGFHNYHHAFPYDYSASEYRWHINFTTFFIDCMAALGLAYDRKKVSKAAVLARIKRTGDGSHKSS

SCD1 [2] = biological target: T1, SCD1 (Homo sapiens (Human), UniProt O00767); experiment: SCD1 13C-palmitic acid assay in A431 cells; type: cell-based; conditions: read-out: A431 cells 13C-PA IC50
T1 sequence (O00767 whole entry): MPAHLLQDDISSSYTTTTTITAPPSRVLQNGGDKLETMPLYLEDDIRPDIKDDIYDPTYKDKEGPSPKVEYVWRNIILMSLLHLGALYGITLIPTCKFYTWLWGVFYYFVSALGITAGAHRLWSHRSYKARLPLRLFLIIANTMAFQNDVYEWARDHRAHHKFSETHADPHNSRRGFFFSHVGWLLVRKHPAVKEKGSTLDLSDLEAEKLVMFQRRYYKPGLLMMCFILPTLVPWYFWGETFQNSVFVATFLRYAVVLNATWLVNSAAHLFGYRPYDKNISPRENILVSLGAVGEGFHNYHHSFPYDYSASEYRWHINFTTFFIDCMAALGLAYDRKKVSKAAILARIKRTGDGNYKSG
Procedure: Human epithelial carcinoma A431 cells were seeded at 100,000 cells/well in complete growth medium (DMEM, Cellgro #10-013-CM, 4.5 g/L glucose, 10% FBS) in the presence of 0.05 mg/mL human insulin (Hannas Pharmaceutical Supply Co Inc, Humanlin 100 U/ml, 4 mg/ml) in 96-well tissue culture plate. […] The cells were then returned to the tissue culture incubator (37° C. and 5% CO2) for 4 hrs. At the end of incubation, the cells were washed three times with 200 μL/well Hanks buffer (HBSS) and then stored at −20° C. until extraction.
For fatty acid extraction, after thawing out the plates, 40 μL of 1N KOH (containing 5 μM of internal standard 7,7,8,8-D4 palmitate) was added to each well and cell plates were incubated at 37° C. for 30 minutes. […] Acetonitrile (100 μL) was then added to extract fatty acids, followed by centrifugation at 3000 rpm for 10 minutes. 75 μL of extract was then transferred to a new glass vial in a 96-well cluster plate. 5 μL was injected for LC/MS analysis for detection of ^13C-palmitic acid and ^13C-palmitoleic acid. Formation of product ^13C-palmitoleic acid was determined as an index of SCD1 activity.
LC/MS analysis was performed as following. An Agilent 1100 Liquid Chromatographic System (Palo Alto, Calif.) consisting of a binary pump, a degasser and an autosampler was used. Separation of free fatty acids was performed on a Zorbax SB—C8 column (2.1×50 mm, particle size=3.5 μm). An isocratic elution was carried out with 10 mM triethylamine acetate in water:acetonitrile (3:7) at a flow rate of 0.3 mL/min. The column temperature was set at 30° C. and the sample injection volume was 5 μL. The LC run cycle was 4 min, A Micromass triple-quadrupole Quattro Micro mass […] (Waters, Beverly, Mass.) was interfaced with the LC system through a Z-spray electrospray ion source and was operated in the negative ion mode. Nitrogen was used as nebulizing gas, desolvation gas and cone curtain gas and argon was chosen as collision gas. The triple quadrupole MS source parameters were set as follows: capillary voltage, 3200V; cone voltage, 25V; extractor 2V, source temperature, 120° C.; desolvation temperature, 300° C.; cone gas flow, 50 L/h; and desolvation gas flow, 700 L/h. […] MassLynx software version 4.0 was used for system control and data processing. The signal of U—^13C-palmitoleic acid was normalized to an internal standard.

SCD1 [3] = biological target: T1, SCD1; experiment: SCD1 14C-palmitate assay in A431 cells; type: cell-based; conditions: read-out: A431 cells 14C-PA IC50
Procedure: Human epithelial carcinoma A431 cells were seeded at 400,000 cells per well in 48-well tissue culture plate and treated with 2 cycles of fasting in low glucose medium (DMEM, Cellgro #10-014-CV, 1 g/L glucose, 2% Charcoal Filtered FBS) for 24 hours; and re-feeding with high glucose medium for 24 hours (DMEM, Cellgro #10-013-CM, 4.5 g/L glucose, 10% Charcoal Filtered FBS and 0.05 mg/mL Lilly Humulin R, Cat.#, HI-210). Prior to running the assay, the cells were washed twice with high glucose medium (400 μL), followed by addition of 250 μL assay buffer (DMEM, 4.5 g/L glucose, 0.05 mg/mL Human Insulin, 0.1% Fatty Acid Free BSA) to each well. Then, 100 μL of assay buffer containing 20 μM Palmitic Acid, 0.05 μCi ^14C Palmitic Acid (Perkin Elmer, NEC075H) and test compound (at selected concentration) was added to each well. The cells were then Incubated at 37° C. and 5% CO2 tissue culture incubator for 4 hours, followed by extensive washes with pre-chilled PBS. The cell plates were then frozen at −20° C. overnight. After thawing out the plates, 100 μL of 1N KOH was added to each well and the plates were incubated at 37° C. for 30 mins. Cell lysates were transferred to 1 mL Eppendorf tubes and incubated at 95° C. for 1 hour, followed by addition of 10 μL formic acid and 220 μL acetonitrile. The tubes were then centrifuged at 12,000 rpm and the supernatant dried under N2 for 2-3 hours. Dried extract was re-suspended in 60 μL hexane and loaded onto TLC plates (pre-coated with 10% AgNO3 in acetonitrile). The TLC plates were placed into glass running chamber containing 200 mL running solution (100 mL running solution: 92.5 mL chloroform, 6 mL methanol, 750 μL acetic acid, 750 μL dH2O). After running, the TLC plates were air dried and scanned on Bioscan AR-2000 for quantification of ^14C-palmitioleate and ^14C-palmitate peaks. Area under the curve of the peaks were used to calculate product/substrate ratio, an index of SCD1 activity.

[4] = 10-day diet-induced obese C57bl/6 mice study; type: in vivo; conditions: DIO C57BL/6J mice, oral, 10 days
Procedure: Male DIO C57BL/6J mice from Taconic were maintained on high fat diet D12492 containing 60% kCal of mostly saturated fats (Research Diets Inc.) for 4 week from 6-week old. Test compounds were prepared in 0.5% hydroxypropyl methyl cellulose for oral dosing at 10 mg/kg or 30 mg/kg, either q.d. or b.i.d., as noted in the results table below. After 10-days of treatment, body weight change are recorded. Plasma liver enzyme levels (ALT and AST) were also determined.
Compound #6 of the present invention was tested according to the procedure as described above, with results as listed in Table 4, below. In the results presented below, * indicates a calculated p value<0.05 vs. vehicle-treated group.

Row | IC50 (SCD1 [1]) | % Inh. @ 1 μM (SCD1 [1]; 1 μM test compound) | inhibition at 1 µM (SCD1 [1]; 1 μM test compound) | IC50 (SCD1 [2]) | IC50 (SCD1 [3]) | SMILES | Body weight change (g) ([4]; 10 mg/kg, q.d) | Plasma ALT (U/L) ([4]; 10 mg/kg, q.d) | Plasma AST (U/L) ([4]; 10 mg/kg, q.d) | Body weight change (g) ([4]; 30 mg/kg, bid) | Plasma ALT (U/L) ([4]; 30 mg/kg, bid) | Plasma AST (U/L) ([4]; 30 mg/kg, bid) | Body weight change (g) ([4]; 30 mg/kg, q.d) | Plasma ALT (U/L) ([4]; 30 mg/kg, q.d) | Plasma AST (U/L) ([4]; 30 mg/kg, q.d)
1 | 0.14 µM | 95% and 77% | 88% | 0.054 µM | 0.29 µM | Cc1csc(NC(=O)N2CCC(c3noc4ccc(F)cc34)CC2)n1 [Compound 6, 4-(5-fluorobenzo[d]isoxazol-3-yl)-N-(4-methylthiazol-2-yl)-piperidine-1-carboxamide] | 0.00 ± 0.36* g | 57 ± 7 U/L | 89 ± 7 U/L | −0.69 ± 0.38 * g | 41 ± 3 U/L | 102 ± 17 U/L | 0.01 ± 0.24* g | 68 ± 12 U/L | 93 ± 7 U/L
2 | 0.444 µM | – | 79% | – | 0.64 µM | CCCc1nc2ccc(NC(=O)N3CCC(c4noc5ccc(F)cc45)CC3)cc2s1 [Compound 9, 4-(5-fluorobenzo[d]isoxazol-3-yl)-N-(2-propylbenzo[d]thiazol-6-yl)piperidine-1-carboxamide] | – | – | – | – | – | – | – | – | –
3 | 0.151 µM | – | 82% | – | 0.755 µM | CNC(=O)c1cccc(NC(=O)N2CCC(N3CCc4ccccc43)CC2)c1 [Compound 12, 4-(indolin-1-yl)-N-(3-(methylcarbamoyl)phenyl)piperidine-1-carboxamide] | – | – | – | – | – | – | – | – | –
4 | 0.491 µM | – | 81% | – | 0.848 µM | Cc1csc(NC(=O)N2CCC(N3CCCc4ccccc43)CC2)n1 [Compound 13, 4-(3,4-dihydroquinolin-1(2H)-yl)-N-(4-methylthiazol-2-yl)piperidine-1-carboxamide] | – | – | – | – | – | – | – | – | –
